# Data from patent US8987195B2 (priority 2012, dated 2015).
# pEC50, pIC50: −log10 of the molar value. Like-named read-outs stand apart in the source and are kept apart here.
# Columns and labels:
# [1] = test system: HCV genotype 1b replicon; test: HCV replicon assay, genotype 1b replicon EC50; format: cell-based, Hepatitis C virus; conditions: read-out: EC50 [gt-1b]
# Procedure, shortened: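 Potency comes from a four-parameter fit of signal as percent of DMSO control. Replicon-bearing cells were treated 24-48 hours with a compound dilution series in absence of G418, and replicon RNA was quantified normalized to cyclophilin A RNA, or luciferase read.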
# [2] = molecular target: HCV NS3/4A protease genotype 1b (Hepatitis C virus genotype 1b, UniProt P26663); test: HCV NS3/4A protease time-resolved fluorescence (TRF) assay, Ki against genotype 1b; format: biochemical; conditions: for IC50: IC50 [gt-1b] (nM)
# Procedure, shortened: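 NS3/4A enzyme was preincubated 30 min with inhibitor in 50 mM HEPES pH 7.5, 150 mM NaCl, 15% glycerol, 0.15% Triton X-100, 10 mM DTT, 0.1% PEG 8000; 25 nM europium TRF peptide substrate added, 2.5 h at room temperature. Enzyme: 0.2 nM (1b), 0.4 nM (A156T), 0.025 nM (3a). Ki from IC50 via Cheng-Prusoff.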
# [3] = Hepatitis C virus, genotype 1b replicon, K+ salt
# [4] = NS3/4A genotype 1b, enzyme 0.2 nM, K+ salt
# [5] = Hepatitis C virus, genotype 1b replicon
# [6] = NS3/4A genotype 1b, enzyme 0.2 nM
# [7] = Hepatitis C virus, HCV replicon, genotype 1b
# [8] = IC50 [gt-1b], NS3/4A protease TRF assay, genotype 1b enzyme 0.2 nM
compound,measurement,setting,value
"COc1ccc2c3c(c(C4CC4)nc2c1)O[C@]1(CC3)CC2C(=O)NC3(C(=O)NS(=O)(=O)C4(C)CC4)CC3/C=C\CCCCC[C@H](NC(=O)OC(C)(C)C)C(=O)N2C1 (stereo partly drawn) [Example 70, tert-butyl [(2R,6S,12Z)-5′-cyclopropyl-8′-methoxy-14a-{[(1-methylcyclopropyl)sulfonyl]carbamoyl}-5,16-dioxo-1,1′,2′,5,6,7,8,9,10,11,13a,14,14a,15,16,16a-hexadecahydrospiro[cyclopropa[e]pyrrolo[1,2-a][1,4]diazacyclopentadecine-2,3′-pyrano[2,3-c]quinolin]-6-yl]carbamate]",pEC50,[1]; [3],8.86
same,IC50,[2]; [4],0.028 nM
"tert-Butyl (2R,6S,13aS,14aR,16aS,Z)-10′-chloro-5′-(difluoromethyl)-9′-methoxy-14a-(1-methylcyclopropylsulfonylcarbamoyl)-5,16-dioxo-1′,2′,3,5,6,7,8,9,10,11, 13a,14,14a,15,16,16a-hexadecahydro-1H-spiro[cyclopropa[e]pyrrolo[1,2-a][1,4]diaza cyclopentadecine-2,3′-pyrano[2,3-c]quinoline]-6-ylcarbamate [Example 27]",pEC50,[1]; genotype 1b replicon,7.97
same,pIC50,"[2]; NS3/4A genotype 1b, enzyme 0.2 nM, read-out: IC50 [gt-1b]",10.96
"COc1ccc2nc(C)c3c(c2c1)CC[C@]1(C[C@H]2C(=O)N[C@]4(C(=O)NS(=O)(=O)C5(C)CC5)C[C@H]4/C=C\CCCCC[C@H](NC(=O)OCC4(C(F)(F)F)CC4)C(=O)N2C1)O3 [Example 349, [1-(trifluoromethyl)cyclopropyl]methyl [(2R,6S,12Z,13aS,14aR,16aS)-9′-methoxy-5′-methyl-14a-{[(1-methylcyclopropyl)sulfonyl]carbamoyl}-5,16-dioxo-1,1′,2′,5,6,7,8,9,10,11,13a,14,14a,15,16,16a-hexadecahydrospiro[cyclopropa[e]pyrrolo[1,2-a][1,4]diazacyclopentadecine-2,3′-pyrano[2,3-c]quinolin]-6-yl]carbamate]",pEC50,[1]; [3],8.34
same,IC50,[2]; [4],0.012 nM
"CCc1nc2ccc(OC)cc2c2c1O[C@]1(CC2)C[C@H]2C(=O)N[C@]3(C(=O)NS(=O)(=O)C4(C)CC4)C[C@H]3/C=C\CCCCC[C@H](NC(=O)OC(C)(C)C)C(=O)N2C1 [Example 312, tert-butyl [(2R,6S,12Z,13aS,14aR,16aS)-5′-ethyl-9′-methoxy-14a-{[(1-methylcyclopropyl)sulfonyl]carbamoyl}-5,16-dioxo-1,1′,2′,5,6,7,8,9,10,11,13a,14,14a,15,16,16a-hexadecahydrospiro[cyclopropa[e]pyrrolo[1,2-a][1,4]diazacyclopentadecine-2,3′-pyrano[2,3-c]quinolin]-6-yl]carbamate]",pEC50,[1]; [5],8.45
same,IC50,[2]; [6],0.009 nM
"CCc1nc2ccc(OCCN3CCOCC3)cc2c2c1O[C@]1(CC2)C[C@H]2C(=O)N[C@]3(C(=O)NS(=O)(=O)C4(C)CC4)C[C@H]3/C=C\CCCCC[C@H](NC(=O)OC(C)(C)C)C(=O)N2C1 [Example 470, tert-butyl {(2R,6S,12Z,13aS,14aR,16aS)-5′-ethyl-14a-{[(1-methylcyclopropyl)sulfonyl]carbamoyl}-9′-[2-(morpholin-4-yl)ethoxy]-5,16-dioxo-1,1′,2′,5,6,7,8,9,10,11,13a,14,14a,15,16,16a-hexadecahydrospiro[cyclopropa[e]pyrrolo[1,2-a][1,4]diazacyclopentadecine-2,3′-pyrano[2,3-c]quinolin]-6-yl}carbamate]",pEC50,[1]; [7],8.24
same,pIC50,[2]; [8],10.96
"Cc1nc2ccc(OCC(F)(F)F)cc2c2c1O[C@]1(CC2)C[C@H]2C(=O)N[C@]3(C(=O)NS(=O)(=O)C4(C)CC4)C[C@H]3/C=C\CCCCC[C@H](NC(=O)OC(C)(C)C(F)(F)F)C(=O)N2C1 [Example 301, 1,1,1-trifluoro-2-methylpropan-2-yl [(2R,6S,12Z,13aS,14aR,16aS)-5′-methyl-14a-{[(1-methylcyclopropyl)sulfonyl]carbamoyl}-5,16-dioxo-9′-(2,2,2-trifluoroethoxy)-1,1′,2′,5,6,7,8,9,10,11,13a,14,14a,15,16,16a-hexadecahydrospiro[cyclopropa[e]pyrrolo[1,2-a][1,4]diazacyclopentadecine-2,3′-pyrano[2,3-c]quinolin]-6-yl]carbamate]",pEC50,[1]; [5],8.46
same,IC50,[2]; [6],0.013 nM
"Cc1nc2ccc(F)cc2c2c1O[C@]1(CC2)C[C@H]2C(=O)N[C@]3(C(=O)NS(=O)(=O)C4(C)CC4)C[C@H]3/C=C\CCCCC[C@H](NC(=O)OC(C)(C)C(F)(F)F)C(=O)N2C1 [Example 405, 1,1,1-trifluoro-2-methylpropan-2-yl [(2R,6S,12Z,13aS,14aR,16aS)-9′-fluoro-5′-methyl-14a-{[(1-methylcyclopropyl)sulfonyl]carbamoyl}-5,16-dioxo-1,1′,2′,5,6,7,8,9,10,11,13a,14,14a,15,16,16a-hexadecahydrospiro[cyclopropa[e]pyrrolo[1,2-a][1,4]diazacyclopentadecine-2,3′-pyrano[2,3-c]quinolin]-6-yl]carbamate]",pEC50,[1]; [7],9.09
same,pIC50,[2]; [8],10.68
"COc1ccc2nc(C)c3c(c2c1)CC[C@]1(C[C@H]2C(=O)N[C@]4(C(=O)NS(=O)(=O)C5(C)CC5)C[C@H]4/C=C\CCCCC[C@H](NC(=O)OC4CC5CC(=O)OC5C4)C(=O)N2C1)O3 (stereo partly drawn) [Example 261, 2-oxohexahydro-2H-cyclopenta[b]furan-5-yl [(2R,6S,12Z,13aS,14aR,16aS)-9′-methoxy-5′-methyl-14a-{[(1-methylcyclopropyl)sulfonyl]carbamoyl}-5,16-dioxo-1,1′,2′,5,6,7,8,9,10,11,13a,14,14a,15,16,16a-hexadecahydrospiro[cyclopropa[e]pyrrolo[1,2-a][1,4]diazacyclopentadecine-2,3′-pyrano[2,3-c]quinolin]-6-yl]carbamate]",pEC50,[1]; [5],6.72
same,IC50,[2]; [6],0.008 nM
"Cc1nc2ccc(OCC(F)(F)F)cc2c2c1O[C@]1(CC2)C[C@H]2C(=O)N[C@]3(C(=O)NS(=O)(=O)C4(C)CC4)C[C@H]3/C=C\CCCCC[C@H](NC(=O)OC3(C)CCCC3)C(=O)N2C1 [Example 302, 1-methylcyclopentyl [(2R,6S,12Z,13aS,14aR,16aS)-5′-methyl-14a-{[(1-methylcyclopropyl)sulfonyl]carbamoyl}-5,16-dioxo-9′-(2,2,2-trifluoroethoxy)-1,1′,2′,5,6,7,8,9,10,11,13a,14,14a,15,16,16a-hexadecahydrospiro[cyclopropa[e]pyrrolo[1,2-a][1,4]diazacyclopentadecine-2,3′-pyrano[2,3-c]quinolin]-6-yl]carbamate]",pEC50,[1]; [5],8.38
same,IC50,[2]; [6],0.006 nM
"Cc1nc2ccccc2c2c1O[C@]1(CC2)C[C@H]2C(=O)N[C@]3(C(=O)NS(=O)(=O)C4(C)CC4)C[C@H]3/C=C\CCCCC[C@H](NC(=O)NC(C)C)C(=O)N2C1 [Example 282, (2R,6S,12Z,13aS,14aR,16aS)-5′-methyl-N-[(1-methylcyclopropyl)sulfonyl]-5,16-dioxo-6-[(propan-2-ylcarbamoyl)amino]-1,1′,2′,6,7,8,9,10,11,13a,14,15,16,16a-tetradecahydrospiro[cyclopropa[e]pyrrolo[1,2-a][1,4]diazacyclopentadecine-2,3′-pyrano[2,3-c]quinoline]-14a(5H)-carboxamide]",pEC50,"[1]; Hepatitis C virus, genotype 1b replicon, HCOOH salt",7.36
same,IC50,"[2]; NS3/4A genotype 1b, enzyme 0.2 nM, HCOOH salt",0.018 nM
"CC1(C)CCCC1OC(=O)N[C@H]1CCCCC/C=C\[C@@H]2C[C@@]2(C(=O)NS(=O)(=O)C2(C)CC2)NC(=O)[C@@H]2C[C@]3(CCc4c(c(C5CC5)nc5c(F)cccc45)O3)CN2C1=O (stereo partly drawn) [Example 187, 2,2-dimethylcyclopentyl [(2R,6S,12Z,13aS,14aR,16aS)-5′-cyclopropyl-7′-fluoro-14a-{[(1-methylcyclopropyl)sulfonyl]carbamoyl}-5,16-dioxo-1,1′,2′,5,6,7,8,9,10,11,13a,14,14a,15,16,16a-hexadecahydrospiro[cyclopropa[e]pyrrolo[1,2-a][1,4]diazacyclopentadecine-2,3′-pyrano[2,3-c]quinolin]-6-yl]carbamate]",pEC50,[1]; [5],8.08
same,IC50,[2]; [6],0.023 nM
"Cc1nc2ccc(Cl)cc2c2c1O[C@]1(CC2)C[C@H]2C(=O)N[C@]3(C(=O)NS(=O)(=O)C4(C)CC4)C[C@H]3/C=C\CCCCC[C@H](NC(=O)OCC(C)(C)C)C(=O)N2C1 [Example 40, Neopentyl((2R,6S,13aS,14aR,16aS,Z)-9′-chloro-5′-methyl-14a-(((1-methylcyclopropyl)sulfonyl)carbamoyl)-5,16-dioxo-1′,2′,3,5,6,7,8,9,10,11,13a,14,14a,15,16,16a-hexadecahydro-1H-spiro[cyclopropa[e]pyrrolo[1,2-a][1,4]diazacyclopentadecine-2,3′-pyrano[2,3-c]quinolin]-6-yl)carbamate]",pEC50,[1]; [3],8.27
same,IC50,[2]; [4],0.005 nM
"Cc1nc2ccccc2c2c1O[C@]1(CC2)C[C@H]2C(=O)N[C@]3(C(=O)NS(=O)(=O)C4(C)CC4)C[C@H]3/C=C\CCCCC[C@H](NC(=O)OC(C)(C)CCS(=O)(=O)C(C)C)C(=O)N2C1 [Example 304, 2-methyl-4-(propan-2-ylsulfonyl)butan-2-yl [(2R,6S,12Z,13aS,14aR,16aS)-5′-methyl-14a-{[(1-methylcyclopropyl)sulfonyl]carbamoyl}-5,16-dioxo-1,1′,2′,5,6,7,8,9,10,11,13a,14,14a,15,16,16a-hexadecahydrospiro[cyclopropa[e]pyrrolo[1,2-a][1,4]diazacyclopentadecine-2,3′-pyrano[2,3-c]quinolin]-6-yl]carbamate]",pEC50,[1]; [5],7.00
same,IC50,[2]; [6],0.027 nM
